# Results taken from patent publication US10144746B2 (GLOBAL BLOOD THERAPEUTICS, INC., priority 2015, dated 2018).
# Target: Human plasma kallikrein (Homo sapiens (Human), UniProt P03952)
# Experiment: In vitro plasma kallikrein inhibition assay (chromogenic substrate D-Pro-Phe-Arg-pNa, absorbance at 405 nm, IC50 determination)
# Type: biochemical
# Settings: not given
# Chain of Human plasma kallikrein (P03952 391-638): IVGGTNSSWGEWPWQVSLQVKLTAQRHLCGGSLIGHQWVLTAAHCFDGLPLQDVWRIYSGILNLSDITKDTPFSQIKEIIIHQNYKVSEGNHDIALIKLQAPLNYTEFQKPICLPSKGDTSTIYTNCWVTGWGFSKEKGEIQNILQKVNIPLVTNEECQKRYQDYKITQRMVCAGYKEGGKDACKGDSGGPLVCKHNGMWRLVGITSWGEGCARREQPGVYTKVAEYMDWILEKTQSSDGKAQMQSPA
# Chain of Human plasma kallikrein (P03952 20-390 partner): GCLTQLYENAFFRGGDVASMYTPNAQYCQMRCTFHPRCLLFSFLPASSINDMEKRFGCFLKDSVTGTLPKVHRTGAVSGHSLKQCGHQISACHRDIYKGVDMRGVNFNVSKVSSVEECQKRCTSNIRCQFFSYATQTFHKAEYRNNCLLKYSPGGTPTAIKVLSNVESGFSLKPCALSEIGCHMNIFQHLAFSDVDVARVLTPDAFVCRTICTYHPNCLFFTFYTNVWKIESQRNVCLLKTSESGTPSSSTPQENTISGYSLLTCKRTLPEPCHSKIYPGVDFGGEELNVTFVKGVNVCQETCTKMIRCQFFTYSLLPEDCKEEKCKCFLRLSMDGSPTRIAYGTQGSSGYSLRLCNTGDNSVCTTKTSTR
row,KLKB1 pIC50,Structure (SMILES)
1,8.09,"CCc1cc2c(cc1-c1ccc(F)cc1F)C1OC2c2ccc(C(=O)NCc3c(C)cc(N)nc3C)cc21 (racemic) [Example 321, (±)-N-[(6-amino-2,4-dimethyl-pyridin-3-yl)methyl]-12-(2,4-difluorophenyl)-11-ethyl-15-oxatetracyclo[6.6.1.0^2,^7.0^9,1^4] pentadeca-2,4,6,9(14),10,12-hexaene-4-carboxamide and (±)-N-[(6-amino-2,4-dimethylpyridin-3-yl)methyl]-11-(2,4-difluorophenyl)-12-ethyl-15-oxatetracyclo [6.6.1.0^2,^7.0^9,1^4]pentadeca-2,4,6,9(14),10,12-hexaene-4-carboxamide]"
2,5.6,"Cc1cc(N)nc(C)c1CNC(=O)c1ccc2c(c1)C1OC2(C)c2ccc(-c3ccc(F)cc3)cc21 (racemic) [Example 334, (±)-N-[(6-amino-2,4-dimethyl-pyridin-3-yl)methyl]-12-(4-fluorophenyl)-8-methyl-15-oxatetracyclo[6.6.1.0^2,^7.0^9,1^4] pentadeca-2,4,6,9,11,13-hexaene-4-carboxamide (±)-N-[(6-amino-2,4-dimethylpyridin-3-yl)methyl]-11-(4-fluorophenyl)-8-methyl-15-oxatetracyclo[6.6.1.0^2,^7.0^9,1^4] pentadeca-2,4,6,9,11,13-hexaene-4-carboxamide]"
3,6.64,"Cc1cc(N)nc(C)c1CNC(=O)c1ccc2c(c1)C1OC2c2c(C)cc(-c3ccc(F)cc3)cc21 (racemic) [Example 340, (±)-N-[(6-amino-2,4-dimethyl-pyridin-3-yl)methyl]-12-(4-fluorophenyl)-10-methyl-15-oxatetracyclo[6.6.1.0^2,^7.0^9,1^4] pentadeca-2,4,6,9(14),10,12-hexaene-4-carboxamide and (±)-N-[(6-amino-2,4-dimethylpyridin-3-yl)methyl]-11-(4-fluorophenyl)-13-methyl-15-oxatetracyclo [6.6.1.0^2,^7.0^9,1^4]pentadeca-2,4,6,9(14),10,12-hexaene-4-carboxamide]"

# Same assay, conditions: read-out: KLKB1 pIC50 (converted)
row,Structure (SMILES),IC50 [µM]
1,"CCc1cc2c(cc1CC)C1OC2c2ccc(C(=O)NCc3c(C)cc(N)nc3C)cc21 (racemic) [Example 303, (±)-N-[(6-amino-2,4-dimethyl-pyridin-3-yl)methyl]-11,12-diethyl-15-oxatetracyclo [6.6.1.0^2,^7.0^9,1^4]pentadeca-2,4,6,9(14),10,12-hexaene-4-carboxamide]",0.209
2,"Cc1cc2c(cc1C)C1OC2c2ccc(C(=O)NCc3c(C)cc(N)nc3C)cc21 (racemic) [Example 308, (±)-N-[(6-amino-2,4-dimethyl-pyridin-3-yl)methyl]-11,12-dimethyl-15-oxatetracyclo [6.6.1.0^2,^7.0^9,1^4]pentadeca-2,4,6,9(14),10,12-hexaene-4-carboxamide]",0.224
3,"Cc1cc(N)nc(C)c1CNC(=O)c1ccc2c(c1)C1OC2c2cc(C3CC3)c(C3CC3)cc21 (racemic) [Example 311, (±)-N-[(6-amino-2,4-dimethyl-pyridin-3-yl)-methyl]-11,12-dicyclopropyl-15-oxatetracyclo [6.6.1.0^2,^7.0^9,1^4]pentadeca-2,4,6,9,11,13-hexaene-4-carboxamide]",0.0324
4,"Cc1cc(N)nc(C)c1CNC(=O)c1ccc2c(c1)C1OC2c2cc(-c3ccccc3)c(-c3ccccc3)cc21 (racemic) [Example 314, (±)-N-[(6-amino-2,4-dimethyl-pyridin-3-yl)-methyl]-11,12-diphenyl-15-oxatetracyclo-[6.6.1.0^2,^7.0^9,1^4]pentadeca-2,4,6,9,11,13-hexaene-4-carboxamide]",0.871
5,"CCc1cc2c(cc1CC)C1OC2c2ccc(C(=O)NCc3ccc(C(=N)N)cc3)cc21 (racemic) [Example 315, (±)-N-[(4-carbamimidoylphenyl)methyl]-11,12-diethyl-15-oxatetracyclo[6.6.1.0^2,^7.0^9,1^4]-pentadeca-2,4,6,9(14),10,12-hexaene-4-carboxamide]",0.00182
6,"N=C(N)c1ccc(CNC(=O)c2ccc3c(c2)C2OC3c3cc(C4CC4)c(C4CC4)cc32)cc1 (racemic) [Example 316, (±)-N-[(4-carbamimidoyl-phenyl)methyl]-11,12-dicyclopropyl-15-oxatetracyclo [6.6.1.0^2,^7.0^9,1^4]-pentadeca-2,4,6,9,11,13-hexaene-4-carboxamide]",0.0049
7,"Cc1cc2c(cc1C)C1OC2c2ccc(C(=O)NCc3ccc(C(=N)N)cc3)cc21 (racemic) [Example 317, (±)-N-[(4-carbamimidoylphenyl)methyl]-11,12-dimethyl-15-oxatetracyclo[6.6.1.0^2,^7.0^9,1^4]-pentadeca-2,4,6,9(14),10,12-hexaene-4-carboxamide]",0.0288
8,"Cc1cc(N)nc(C)c1CNC(=O)c1ccc2c(c1)C1OC2c2cc3c(cc21)C(=O)N(C)C3=O (racemic) [Example 318, (±)-N-[(6-amino-2,4-dimethyl-pyridin-3-yl)methyl]-6-methyl-5,7-dioxo-18-oxa-6-azapentacyclo [9.6.1.0^2,1^0.0^4,^8.0^12,1^4]octadeca-2(10),3,8,12,14,16-hexaene-14-carboxamide]",0.0174
9,"COC(=O)c1cc2c(cc1C(=O)OC)C1OC2c2ccc(C(=O)NCc3c(C)cc(N)nc3C)cc21 (racemic) [Example 319, (±)-4,5-dimethyl 11-{[(6-amino-2,4-dimethyl-pyridin-3-yl)methyl]carbamoyl}-15-oxatetracyclo[6.6.1.0^2,^7.0^9,1^4] pentadeca-2(7),3,5,9,11,13-hexaene-4,5-dicarboxylate]",2.45
10,"Cc1cc(N)nc(C)c1CNC(=O)c1ccc2c(c1)[C@@H]1O[C@H]2c2cc(-c3ccccc3F)ccc21 (single isomer, unassigned) [Example 130]",0.195
11,"Cc1cc(N)nc(C)c1CNC(=O)c1ccc2c(c1)[C@@H]1O[C@H]2c2ccc(-c3ccc(F)c(F)c3F)cc21 (single isomer, unassigned) [Example 138]",0.024
12,"Cc1cc(N)nc(C)c1CNC(=O)c1ccc2c(c1)[C@@H]1O[C@H]2c2ccc(-c3ccc(Cl)cc3C#N)cc21 (single isomer, unassigned) [Example 139]",0.00302
13,"Cc1ccc(-c2ccc3c(c2)[C@H]2O[C@@H]3c3ccc(C(=O)NCc4c(C)cc(N)nc4C)cc32)c(C#N)c1 (single isomer, unassigned) [Example 140]",0.00501
14,"Cc1cc(N)nc(C)c1CNC(=O)c1ccc2c(c1)[C@@H]1O[C@H]2c2ccc(-c3ccc(Cl)c(F)c3F)cc21 (single isomer, unassigned) [Example 145]",0.0174
15,"Cc1cc(N)nc(C)c1CNC(=O)c1ccc2c(c1)[C@@H]1O[C@H]2c2ccc(-c3ccc(Cl)cc3F)cc21 (single isomer, unassigned) [Example 174]",0.0468
16,"Cc1cc(N)nc(C)c1CNC(=O)c1ccc2c(c1)[C@@H]1O[C@H]2c2ccc(-c3ccc(F)cc3Cl)cc21 (single isomer, unassigned) [Example 176]",0.0676
17,"COc1ccc(-c2ccc3c(c2)[C@H]2O[C@@H]3c3ccc(C(=O)NCc4c(C)cc(N)nc4C)cc32)c(F)n1 (single isomer, unassigned) [Example 177]",0.117

# Results, then the molecule that gave them:
row,IC50 [µM],Structure (SMILES)
1,10.2,"Cc1cc(N)nc(C)c1CNC(=O)c1ccc2c(c1)C1OC2c2cc3c(O)nnc(O)c3cc21 (racemic) [Example 320, (±)-N-[(6-amino-2,4-dimethyl-pyridin-3-yl)methyl]-5,8-dihydroxy-19-oxa-6,7-diazapentacyclo [10.6.1.0^2,^11.0^4,^9.0^13,1^8] nonadeca-2(11),3,5,7,9,13,15,17-octaene-15-carboxamide]"
2,0.851,"Cc1cc(N)nc(C)c1CNC(=O)c1ccc2c(c1)C1OC2c2cc(C#N)c(C#N)cc21 (racemic) [Example 326, (±)-N-((6-amino-2,4-dimethylpyridin-3-yl)methyl]-11,12-dicyano-15-oxatetracyclo-[6.6.1.0^2,^7.0^9,1^4]pentadeca-2,4,6,9,11,13-hexaene-4-carboxamide]"
3,1.62,"COc1cc2c(cc1OC)C1OC2c2ccc(C(=O)NCc3c(C)cc(N)nc3C)cc21 (racemic) [Example 335, (±)-N-[(6-amino-2,4-dimethylpyridin-3-yl)methyl]-11,12-dimethoxy-15-oxatetracyclo[6.6.1.0^2,^7.0^9,1^4] pentadeca-2,4,6,9(14),10,12-hexaene-4-carboxamide]"
4,0.55,"Cc1cc(N)nc(C)c1CNC(=O)c1ccc2c(c1)C1OC2c2cc3c(cc21)OCCO3 (racemic) [Example 342, (±)-N-[(6-amino-2,4-dimethylpyridin-3-yl)methyl]-5,8,19-trioxapentacyclo-[10.6.1.0^2,11.0^4,^9.0^13,1^8]nonadeca-2,4(9),10,13,15,17-hexaene-15-carboxamide]"
5,0.427,"CC12OC(C)(c3cc(C(=O)NCc4ccc(C(=N)N)cc4)ccc31)c1cc(-c3ccc(F)cc3)ccc12 (racemic) [Example 344, N-[(4-carbamimidoylphenyl)methyl]-12-(4-fluorophenyl)-1,8-dimethyl-15-oxatetracyclo [6.6.1.0^2,^7.0^9,1^4]pentadeca-2,4,6,9,11,13-hexaene-4-carboxamide]"
6,0.00501,"Cc1cc(-c2ccc(F)cc2)cc2c1C1OC2c2cc(C(=O)NCc3ccc(C(=N)N)cc3)cc(F)c21 (racemic) [Example 396, (±)-N-[(4-carbamimidoylphenyl)methyl]-6-fluoro-12-(4-fluorophenyl)-10-methyl-15-oxatetracyclo[6.6.1.0^2,^7.0^9,1^4] pentadeca-2(7),3,5,9(14),10,12-hexaene-4-carboxamide]"
7,0.02,"Cc1cc(N)nc(C)c1CNC(=O)c1cc(F)c2c(c1)C1OC2c2c(C)cc(-c3ccc(F)cc3)cc21 (racemic) [Example 397, (±)-N-(6-amino-2,4-dimethylpyridin-3-yl) methyl]-6-fluoro-12-(4-fluorophenyl)-10-methyl-15-oxatetracyclo[6.6.1.0^2,^7.0^9,1^4] pentadeca-2(7),3,5,9(14),10,12-hexaene-4-carboxamide]"
8,0.398,"Cc1cc(N)nc(C)c1CNC(=O)c1cc(F)c2c(c1)C1OC2c2cc(-c3ccc(F)cc3)cc(C)c21 (racemic) [Example 398, N-[(6-amino-2,4-dimethyl-pyridin-3-yl)methyl]-6-fluoro-11-(4-fluorophenyl)-13-methyl-15-oxatetracyclo[6.6.1.0^2,^7.0^9,1^4] pentadeca-2,4,6,9(14),10,12-hexaene-4-carboxamide]"
